Test results reported in patent US20260102407A1, “TREATMENT METHODS” (priority 2020, published 2026).

Assays:
[1] = tested on: HMEC-1; assay: Endothelial proliferation assay using the xCELLigence system; type: cell-based, human; conditions: HMEC-1, 5% FBS, 79 h; for serum-inducible endothelial proliferation (xCELLigence cell index): 0.2-1 μM
Experimental: Endothelial proliferation assay using the xCELLigence system. HMEC-1 proliferation was evaluated using the xCELLigence System (Roche, Castle Hill). Briefly, HMEC-1 (5×10^3 cells/well) were seeded in a 96-well E-plate and inserted into the xCELLigence RTCA station (Roche). Cells were serum-deprived for 24 h in MCDB131 medium which contained 10 ng/ml EGF (Sigma-Aldrich) and 1 μg/ml hydrocortisone (Sigma-Aldrich) then treated with compound (0.2-1 μM) in medium containing 5% FBS, 10 ng/ml EGF (Sigma-Aldrich) and 1 μg/ml hydrocortisone (Sigma-Aldrich). Cell growth was monitored automatically every 15 min by xCELLigence system. Cell index (CI) represents a quantitative measure of each well cell growth. In this system, CI a unitless parameter that reports impedance of electron flow caused by adherent cells.

[2] = tested on: HMEC-1; assay: Endothelial network formation assay on Matrigel; type: cell-based, human; conditions: for endothelial network (tubule) formation on Matrigel: 3 μM, 1% FBS, 50 ng/ml FGF-2, 2, 4, 6 and 24 h
Experimental: Endothelial network formation assay. HMEC-1 (4×10^4 cells/well) in MCDB131 containing 1% FBS and compound (1 or 3 μM) or curcumin (1-40 μM) and 50 ng/ml FGF-2 were added to 96-well plates coated overnight at 4° C. with 100 μl of growth factor-reduced reconstituted basement membrane matrix (Matrigel, cat. 354230, Corning, NY). Network formation was observed over subsequent hours and photographed under 4× or 10× objective using an Olympus CKX41 microscope.

[3] = molecular target: T1, Recombinant human His-MEK1 (Homo sapiens, UniProt Q02750); assay: SPR (Biacore T200) on immobilised His-MEK1; type: binding; conditions: 15° C.; 20 mM HEPES, 150 mM NaCl, 5% DMSO pH 7.4
T1 construct: purchased ThermoFisher Scientific PV3303
T1 sequence (Q02750 whole entry): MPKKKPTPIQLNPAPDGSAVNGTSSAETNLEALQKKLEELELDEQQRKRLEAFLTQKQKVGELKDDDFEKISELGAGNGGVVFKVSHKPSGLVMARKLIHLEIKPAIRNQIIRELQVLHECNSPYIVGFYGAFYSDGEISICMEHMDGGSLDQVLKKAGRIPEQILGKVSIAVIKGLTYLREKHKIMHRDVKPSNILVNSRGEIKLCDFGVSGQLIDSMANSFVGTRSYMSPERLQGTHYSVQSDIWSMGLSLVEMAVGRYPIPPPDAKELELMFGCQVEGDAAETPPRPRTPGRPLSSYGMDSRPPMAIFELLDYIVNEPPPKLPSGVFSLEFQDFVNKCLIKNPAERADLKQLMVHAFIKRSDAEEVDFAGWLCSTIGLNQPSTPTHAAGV
Experimental: (§1) SPR. SPR was performed on a Biacore T200. The active and reference flow cells of a Xantec NIHMC Ni sensor chip were conditioned with 0.5M NaEDTA followed by 5 mM NiCl2 in immobilisation buffer (20 mM HEPES, 150 mM NaCl, pH 7.4). Recombinant human His-MEK1 and His-MEK2 (500 nM, ThermoFisher Scientific, cat. PV3303 and PV3615, respectively) were injected for 15 min at 10 μl min^−1 over separate active flow cells. All immobilisation was carried out at 25° C. Following immobilisation, the temperature was lowered to 15° C., and the buffer changed to 20 mM HEPES, 150 mM NaCl, 5% DMSO pH 7.4. Samples of PD98059 (2.5-30 μM in running buffer) and BT2 (1.25-15 μM) were injected at a flow rate of 30 μl min^−1 over immobilised MEK1 and MEK2. Solvent correction was applied to the data using a DMSO standard curve. Data were analysed using the Biacore T200 Evaluation software. Prior to SPR, limits of compound solubility were determined using ^1H 1D NMR.

[4] = molecular target: T2, Recombinant human His-MEK2 (Homo sapiens, UniProt P36507); assay: SPR (Biacore T200) on immobilised His-MEK2; type: binding; conditions: 15° C.; 20 mM HEPES, 150 mM NaCl, 5% DMSO pH 7.4
T2 construct: purchased ThermoFisher Scientific PV3615
T2 sequence (P36507 whole entry): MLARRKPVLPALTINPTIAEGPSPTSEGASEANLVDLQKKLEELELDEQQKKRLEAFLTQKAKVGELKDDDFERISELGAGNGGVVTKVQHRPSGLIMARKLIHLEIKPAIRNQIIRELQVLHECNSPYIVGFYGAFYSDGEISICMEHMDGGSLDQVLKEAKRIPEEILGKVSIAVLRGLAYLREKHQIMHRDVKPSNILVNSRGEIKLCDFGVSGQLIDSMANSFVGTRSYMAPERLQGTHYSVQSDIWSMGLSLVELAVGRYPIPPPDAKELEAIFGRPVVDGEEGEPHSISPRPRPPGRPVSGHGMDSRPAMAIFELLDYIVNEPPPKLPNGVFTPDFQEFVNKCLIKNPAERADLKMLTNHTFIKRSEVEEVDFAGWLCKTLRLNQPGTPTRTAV
Experimental: as §1

[5] = Solubility on dilution in medium containing serum; type: physicochemical; conditions: dilution in medium containing serum
[6] = tested on: FosB/ΔFosB; assay: Western blot, serum-inducible FosB/ΔFosB expression in HMEC-1; type: cell-based, human; conditions: 30 μM compound, 10% FBS 1 h
Experimental: (§2) Western blot analysis with extracts of cells treated with serum. HMEC-1 (80-90% confluency) were arrested in serum-free MCDB131 medium without EGF or hydrocortisone for 20 h. Cells were treated with 30 μM compound in serum-free MCDB131 medium for 4 h, and the medium was changed to complete medium (with 10% FBS with EGF and hydrocortisone) with 30 μM compound for 1 h. Total protein was harvested as previously described in radioimmunoprecipitation (RIPA) lysis buffer with protease inhibitors (Li, Y., et al., Int J Cardiol 220, 185-191 (2016)). Proteins were resolved on 4-20% (w/v) sodium dodecyl sulfate (SDS)-polyacrylamide gradient gels (Bio-Rad Mini-PROTEAN TGX) and transferred to Immobilon-P PVDF membranes (Millipore, USA). Membranes were blocked with 5% skim milk and incubated with rabbit monoclonal FosB (cat. 2251, 1:1000, Cell Signaling, USA), rabbit monoclonal c-Fos antibodies (cat. 2250, 1:1000, Cell Signaling, USA) at 4° C. overnight or mouse monoclonal […] antibodies (cat. A5316, 1:30000, Sigma-Aldrich) at 22° C. for 15 min then incubated with a horseradish peroxidase conjugated secondary goat anti-rabbit (cat. P0448, 1:1000, DAKO Cytomation, Denmark) or goat anti-mouse (cat. P0447, 1:1000, DAKO Cytomation, Denmark) antibodies for 1 h. Chemiluminescence was detected using the Western Lightning Chemiluminescence system (PerkinElmer, USA) and ImageQuant™ LAS 4000 biomolecular imager (GE Healthcare Life Sciences, USA). Band intensity in images generated with the LAS 4000 on automatic exposure with sensitivity/resolution setting high was quantified using NIH ImageJ.

[7] = tested on: c-Fos; assay: Western blot, serum-inducible c-Fos expression in HMEC-1; type: cell-based, human; conditions: 30 μM compound, 10% FBS 1 h
Experimental: as §2

[8] = tested on: BAEC; assay: Endothelial dual chamber migration assay toward VEGF-A165; type: cell-based, bovine; conditions: 1 μM; Transwell; 10% FBS and 50 ng/ml VEGF-A165 in lower chamber; 24 h
Experimental: Endothelial dual chamber migration assay. BAEC (6×10^3 cells/well) suspended in DMEM supplemented with 10% FBS were seeded into the upper chamber of 24-well plates fitted with Millicell cell culture inserts (cat. PI8P01250, Millipore). After 48 h, the medium was changed to DMEM supplemented with 0.01% FBS and the cells were incubated for 48 h. Compounds prepared in DMEM containing 0.01% FBS were added to the upper chamber. VEGF-A165 (50 ng/ml, Sigma, cat. V7259) in medium containing 10% FBS was added to the lower chamber. After 24 h, medium from the upper chamber was removed and a cotton swab was used to remove non-migrated cells and excess liquid. The insert was placed in 70% ethanol for 10 min to allow cell fixation and membranes were dried for 10-15 min. Filters were excised and placed on slides. Mounting medium (Fluoroshield™ with DAPI, Sigma, cat. 6057) was added and specimens were visualized using an EVOS FL microscope.

[9] = tested on: HMEC-1; assay: Endothelial repair following in vitro injury (scratch assay); type: cell-based, human; conditions: 0.6 μM, 5% FBS, 48 h
Experimental: Endothelial repair following in vitro injury. HMEC-1 (90-100% confluency) in 6-well plates were washed with PBS, and treated with 0.6 μM compound in MCDB131 containing 5% FBS. A sterile pointed toothpick was used to scrape the cell monolayer and the wells photographed under 4× objective at 0 h and 48 h. Cell regrowth in the denuded zone was determined using Image-Pro Plus (Cybernetics, USA).

[10] = tested on: p-SAPK/JNK; assay: Western blot, IL-1β-inducible p-SAPK/JNK in HMEC-1; type: cell-based, human; conditions: 1-30 μM
Experimental: (§3) Western blot analysis with extracts of cells treated with IL-13. HMEC-1 (80-90% confluency) were arrested in serum-free MCDB131 medium (Invitrogen, MD) without any growth factor for 48 h. Cells were treated with 30 μM compound in serum-free medium for 4 h, and incubated with 20 ng/ml IL-1β (Sigma, cat. SRE3083) in serum-free medium with the same concentration of compound for up to 4 h, unless otherwise indicated. Total protein was harvested as previously described using RIPA buffer with protease inhibitors. Proteins were resolved on 4-20% (w/v) SDS-polyacrylamide gradient gels and transferred to Immobilon-P PVDF membranes. […] Chemiluminescence was detected using the Western Lightning Chemiluminescence system and ImageQuant™ LAS 4000 biomolecular imager. Band intensity in images generated with the LAS 4000 using the same settings were quantified by NIH ImageJ.

[11] = tested on: p-p38; assay: Western blot, IL-1β-inducible p-p38 in HMEC-1; type: cell-based, human; conditions: 1-30 μM
Experimental: as §3

SMILES | binding to His-MEK1 (SPR) [3] | binding to His-MEK2 (SPR) [4] | serum-inducible FosB/ΔFosB expression (Western blot) [6] | serum-inducible endothelial proliferation (xCELLigence cell index) [1] | migration of BAEC toward VEGF-A165 [8] | endothelial regrowth after mechanical injury in vitro [9] | other results
CCN1C(=O)c2cc(NC(=O)COC)ccc2Oc2ccccc21 [BT2-MeOA, N-(10-ethyl-11-oxo-10,11-dihydrodibenzo[b,f][1,4]oxazepin-2-yl)-2-methoxyacetamide] | no appreciable binding | no appreciable binding |  |  |  |  | inhibition of serum-inducible proliferation compared with BT2 ([1]; 0.4 or 0.8 μM): Neither BT2-MeOA nor any other BT2 analogue had the ability to inhibit; inhibition of network formation on Matrigel (FIG. 5B) ([2]; 1 μM): Neither BT2-MeOA nor any other BT2 analogue had the ability to inhibit; solubility relative to BT2 and analogues [5]: greater solubility than BT2
CCCN1C(=O)c2cc(NC(=O)OCC)ccc2Oc2ccccc21 [BT2-Pr, ethyl (11-oxo-10-propyl-10,11-dihydrodibenzo[b,f][1,4]oxazepin-2-yl)carbamate] | no appreciable binding | no appreciable binding |  |  |  |  | 
COCCOC(=O)NC(=O)Nc1ccc(C(=NO)c2ccc(Cl)cc2)cc1 [Compound T4] |  |  | inhibited less potently | inhibited serum-inducible proliferation at concentrations in a dose-dependent manner | inhibited migration | blocked this reparative response | serum-inducible c-Fos expression (Western blot) [7]: inhibit; endothelial network (tubule) formation on Matrigel [2]: inhibited network formation
COC(=O)Nc1nc2ccc(C(=O)c3ccc(F)cc3)cc2[nH]1 [Compound T6, Flubendazole, reference compound] |  |  | inhibited less potently | inhibited serum-inducible proliferation at concentrations in a dose-dependent manner | inhibited migration | blocked this reparative response | serum-inducible c-Fos expression (Western blot) [7]: inhibit; endothelial network (tubule) formation on Matrigel [2]: inhibited network formation
Nc1ccc(C(=O)c2ccc(F)cc2)cc1 [Compound T7, (4-aminophenyl)(4-fluorophenyl)methanone] |  |  | no inhibition | no inhibitory effect |  | no such effect | 
COc1cccc(-c2cc(=O)c3ccccc3o2)c1N [PD98059, reference compound] | bound to both His-MEK1 and His-MEK2 | bound to both His-MEK1 and His-MEK2 |  |  | neither BT3, nor PD98059 (allosteric MEK inhibitor), imatinib (tyrosine kinase inhibitor) or tofacitinib (Janus kinase inhibitor) had an inhibitory effect |  | IL-1β-inducible p-SAPK/JNK [10]: no effect; IL-1β-inducible p-p38 [11]: no effect
COc1cc(/C=C/C(=O)CC(=O)/C=C/c2ccc(O)c(OC)c2)ccc1O [curcumin, reference compound] |  |  |  |  |  |  | endothelial network formation ([2]; 1 μM, after 4 h): no inhibition; inhibition at 30 µM ([2]; Homo sapiens, 30 μM, after 4 h): ~25%; inhibition at 40 µM ([2]; Homo sapiens, 40 μM, after 4 h): ~50%
Cc1ccc(NC(=O)c2ccc(CN3CCN(C)CC3)cc2)cc1Nc1nccc(-c2cccnc2)n1 [imatinib] |  |  |  |  | neither BT3, nor PD98059 (allosteric MEK inhibitor), imatinib (tyrosine kinase inhibitor) or tofacitinib (Janus kinase inhibitor) had an inhibitory effect |  | 
C[C@@H]1CCN(C(=O)CC#N)C[C@@H]1N(C)c1ncnc2[nH]ccc12 [tofacitinib] |  |  |  |  | neither BT3, nor PD98059 (allosteric MEK inhibitor), imatinib (tyrosine kinase inhibitor) or tofacitinib (Janus kinase inhibitor) had an inhibitory effect |  | 
